What was measured:
[1] = system: balloon-injured right carotid artery; assay: Restenosis test in dog carotid artery balloon injury model; assay type: in vivo, dog (beagle); conditions: 28 days after balloon injury
Description: 21 Male adult beagles (9.4 to 11.4 kg) purchased from NIPPON NOSAN KOGYO were anesthetized with an intravenous administration of pentobarbital sodium at 30 mg/kg per animal. After immobilizing each animal in the spine position, the cervical part was incised and the right and left carotid arteries were exposed. After intravenous administration of 1000 U of heparin sodium, the right carotid artery branch was incised and the tip of a balloon catheter (Baxter 4 Fr, 40 cm) was inserted from the carotid artery to the aortic arch. With the balloon being inflated with application of pressure, the catheter was drawn out to injure the intima of the blood vessel. This procedure was repeated 5 times, and the balloon catheter was taken out, and the incision in the blood vessel was ligated. After suturing the skin incision, 1000 U of heparin sodium and 100 mg of ampicillin sodium were administered intramuscularly for the postoperative maintenance.
3 Groups each including 7 balloon-injured dogs were divided as the high dose treatment group, low dose treatment group and non-treatment group. 2-(5-Formylamino-6-oxo-2-phenyl-1,6-dihydropyrimidin-1-yl)-N-[2,3-dioxo-1-phenylmethyl-6-(2-pyridyloxy)]hexylacetamide (No. 10) was given at a dose of 1 mg/kg in the high dose treatment group and at 0.2 mg/kg in the low dose treatment group once a day in capsules every day over a period of 33 days in total from 5 days before the balloon injury through the day of the blood vessel sampling. In the non-treatment group, vacant capsules were given every day. In all groups, 50 ml or more of a tap water was given forcibly after administration.
Twenty eight (28) days after the balloon injury, 30 mg/kg of pentobarbital sodium was given intravenously to anesthetize. After exsanguination, the right carotid artery as an injured position was isolated, and cut into 3 pieces. About 5 mm was cut out of each of the sections which were distal, proximal and center with regard to the heart. The left carotid artery was also isolated as a non-injury position, from the center of which about 5 mm was cut off, and each was fixed in 10% formalin neutral buffer solution.
Each vascular tissue embedded in a paraffin was shaved into sections, and subjected to a Hematoxylin-Eoshin staining. The intraluminal area, the area inside the intima and the area inside the media were measured using Olympus Image Analyzer Model VM-30.
Based on the areas obtained in (D) described above and using the following equation, a vascular stenosis ratio and a vascular lumen ratio of each position were calculated, and the mean of the three positions was regarded as the value of each individual animal. In the equation, A is an area inside the intima, B is an intraluminal area and C is an area inside the media. […]

[2] = system: implanted blood vessel (jugular vein implanted into the carotid artery); assay: Restenosis test in dog bypass graft model; assay type: in vivo, dog (beagle); conditions: implanted blood vessel 28 days after bypass grafting, 5 mg/kg orally once a day for 33 days
Description: (§1) 10 Male adult beagles (8 to 10 kg) purchased from NIPPON SLC were anesthetized with an intravenous administration of pentobarbital sodium at 35 mg/kg per animal. The cervical position was incised, and a right jugular vein was isolated and implanted into the carotid artery on the same side (J.Hum.Hypertens., 12 (suppl.1), S21(1999)). After implantation, the incision was sutured and the animal was raised as usual after coming out from the anesthetic.
(§2) 2 Groups each including 5 dogs, which had been subjected to the bypass grafting, were provided as the treatment group and the non-treatment group. In the treatment group, 2-(5-formylamino-6-oxo-2-phenyl-1,6-dihydropyrimidin-1-yl)-N-[2,3-dioxo-1-phenylmethyl-6-(2-pyridyloxy)]hexylacetamide (No. 10) was orally administered at a dose of 5 mg/kg once a day in capsules every day over a period of 33 days in total from 5 days before the bypass grafting through the day of the blood vessel sampling.
28 Days after the bypass grafting, 35 mg/kg of pentobarbital sodium was given intravenously to anesthetize. The implanted vein and the jugular vein on the other side were isolated, and each was cut at the center. […]
Based on the areas obtained in (D) described above and using the following equation, a vascular stenosis ratio of each individual animal was calculated. […]

[3] = rat, in vivo, po, 100 mg/kg
From the text: A compound employed in the invention has a low toxicity, and any compound undergoes a characteristically low accumulation of the toxicity when given continuously. […] In addition, another characteristic advantage is the possibility of giving orally as a therapeutic or prophylactic agent for an angiostenosis.

chymase = molecular target: T1, chymase (Canis lupus familiaris, UniProt P21842); assay: Chymase activity measurement in implanted blood vessel, dog bypass graft model; assay type: in vivo, dog (beagle); conditions: implanted blood vessel 28 days after bypass grafting; 5 mg/kg orally once a day in capsules for 33 days; angiotensin I substrate
T1 construct: An isolated blood vessel was combined with a 10-fold volume (w/v) of a 20 mM sodium phosphate buffer solution (pH7.4); from tissue; host or cells: implanted jugular vein graft of beagle dogs (homogenate, high-salt/detergent extract supernatant)
T1 sequence (P21842 22-249): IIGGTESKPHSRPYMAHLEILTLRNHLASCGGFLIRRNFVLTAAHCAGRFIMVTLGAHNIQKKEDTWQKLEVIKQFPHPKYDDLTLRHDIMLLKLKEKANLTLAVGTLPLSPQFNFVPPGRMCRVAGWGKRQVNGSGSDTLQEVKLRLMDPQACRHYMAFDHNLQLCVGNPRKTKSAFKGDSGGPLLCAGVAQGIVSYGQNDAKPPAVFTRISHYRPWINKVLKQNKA
Description: (A) Bypass Graft Model Preparation
as §1, §2
28 Days after the bypass grafting, 35 mg/kg of pentobarbital sodium was given intravenously to anesthetize. […]
The chymase activity was measured using angiotensin I as a substrate. […] Immediately after completion of the reaction, angiotensin II produced was quantified using a high performance liquid chromatography, and the chymase activity of the tissue was calculated.

[4] = clinical tests in Japan (RINSHO IYAKU, 12(1), 65 (1996)); cited from earlier work
[5] = High dose 1 mg/kg once a day in capsules for 33 days, p<0.05 vs non-treatment

| SMILES | Vascular lumen ratio [1, 5] | Vascular stenosis ratio [1, 5] | Vascular stenosis ratio ([1]; Low dose 0.2 mg/kg once a day in capsules for 33 days) | Vascular lumen ratio ([1]; Low dose 0.2 mg/kg once a day in capsules for 33 days, B/Cx100) | intima area [2] | Vascular stenosis ratio ([2]; [(A-B)/(C-A)]x100) | toxicological change [3] | Chymase activity (chymase) | side effect in clinical tests [4] |
| --- | --- | --- | --- | --- | --- | --- | --- | --- | --- |
| O=CNc1cnc(-c2ccccc2)n(CC(=O)NC(Cc2ccccc2)C(=O)C(=O)CCCOc2ccccn2)c1=O (stereo not drawn) [Compound No. 10, 2-(5-formylamino-6-oxo-2-phenyl-1,6-dihydropyrimidin-1-yl)-N-[2,3-dioxo-1-phenylmethyl-6-(2-pyridyloxy)]hexylacetamide] | 41.6 ± 1.1 % | 10.5 ± 1.8 % | 13.6 ± 2.0% | 38.4 ± 2.0% | 1.78 ± 0.12 mm2 | 30.9 ± 8.8% | no toxicological change | 4.88 ± 0.53 mU/mg protein |  |
| COc1ccc(/C=C/C(=O)Nc2ccccc2C(=O)O)cc1OC [tranilast] |  |  |  |  |  |  |  |  | hepatic dysfunction as a highly frequent side effect |
